# Measured values reported in ChEMBL document CHEMBL3046040, “Synthesis, cytostatic and anti-viral activity evaluation of the novel acyclic nucleoside analogues containing a sterically constrained (Z)-4-amino-2-butenyl moiety” (Med Chem Res, 2011).
# Active and inactive are the calls of the source. No cut-off for these calls is given here.
# Test system: MCF7
# Test: Antiproliferative activity against Homo sapiens (human) MCF7 cells by MTT assay
# Assay type: functional, cell-based
# Settings: not given
row,SMILES,IC50 [µM]
1,NCCCCn1cnc2c(-n3cccc3)ncnc21,> 100
2,NC/C=C\Cn1cnc2c(N)nc(N)nc21 [listing 1 of 3 here],> 100

# Test system: Vesicular stomatitis virus
# Test: Antiviral activity against Vesicular stomatitis virus infected HeLa cells assessed as inhibition of virus-induced cytopathic effect
# Assay type: functional, organism-based
# Settings: not given
row,SMILES,Activity
1,NC/C=C\Cn1ccc(=O)[nH]c1=O,inactive
2,NCCCCn1cnc2c(-n3cccc3)ncnc21,inactive
3,NC/C=C\Cn1cnc2c(N)nc(N)nc21 [listing 2 of 3 here],inactive
4,NC/C=C\Cn1cnc2c(=O)[nH]c(N)nc21,inactive
5,NCCCCn1cnc2c(N)nc(N)nc21,inactive

# Test system: Respiratory syncytial virus
# Test: Antiviral activity against Respiratory syncytial virus infected HeLa cells assessed as inhibition of virus-induced cytopathic effect
# Assay type: functional, organism-based
# Settings: not given
row,SMILES,Activity
1,NC/C=C\Cn1ccc(=O)[nH]c1=O,inactive
2,NCCCCn1cnc2c(-n3cccc3)ncnc21,inactive
3,NC/C=C\Cn1cnc2c(N)nc(N)nc21 [listing 2 of 3 here],inactive
4,NC/C=C\Cn1cnc2c(=O)[nH]c(N)nc21,inactive
5,NCCCCn1cnc2c(N)nc(N)nc21,inactive

# Test system: Human immunodeficiency virus 1
# Test: Antiviral activity against Human immunodeficiency virus 1 IIIB infected CEM cells assessed as inhibition of virus-induced giant cell formation after 4 days by microscopic analysis
# Assay type: functional, organism-based
# Settings: CCRF-CEM, 96 h
row,SMILES,EC50 [µM]
1,NC/C=C\Cn1cnc2c(=O)[nH]c(N)nc21,10

# Test system: L1210
# Test: Cytostatic activity against Mus musculus (mouse) L1210 cells after 48 hr by Coulter counting analysis
# Assay type: functional, cell-based
# Settings: Mus musculus, L1210, 48 h
row,SMILES,IC50 [µM]
1,NCCCCn1cnc2c(-n3cccc3)ncnc21,91
2,NC/C=C\Cn1cnc2c(N)nc(N)nc21 [listing 1 of 3 here],> 500

# Same assay, conditions: l1210
row,SMILES,IC50 [µM]
1,NC/C=C\Cn1cnc2c(N)nc(N)nc21 [listing 3 of 3 here],350

# Test system: Influenza A virus
# Test: Antiviral activity against Unidentified Influenza A virus ([…]) infected MDCK cells assessed as inhibition of virus-induced cytopathic effect
# Assay type: functional, organism-based
# Settings: Influenza A virus (H1N1)
row,SMILES,Activity
1,NC/C=C\Cn1ccc(=O)[nH]c1=O,inactive
2,NCCCCn1cnc2c(-n3cccc3)ncnc21,inactive
3,NC/C=C\Cn1cnc2c(N)nc(N)nc21 [listing 2 of 3 here],inactive
4,NC/C=C\Cn1cnc2c(=O)[nH]c(N)nc21,inactive
5,NCCCCn1cnc2c(N)nc(N)nc21,inactive

# Test system: HeLa
# Test: Antiproliferative activity against Homo sapiens (human) HeLa cells by MTT assay
# Assay type: functional, cell-based
# Settings: not given
SMILES,Activity,IC50 [µM]
NCCCCn1cnc2c(-n3cccc3)ncnc21,Dose-dependent effect,10.9
NC/C=C\Cn1cnc2c(N)nc(N)nc21 [listing 1 of 3 here],,> 100

# Test system: Punta Toro virus
# Test: Antiviral activity against Punta Toro virus infected Vero cells assessed as inhibition of virus-induced cytopathic effect
# Assay type: functional, organism-based
# Settings: not given
row,SMILES,Activity
1,NC/C=C\Cn1ccc(=O)[nH]c1=O,inactive
2,NCCCCn1cnc2c(-n3cccc3)ncnc21,inactive
3,NC/C=C\Cn1cnc2c(N)nc(N)nc21 [listing 2 of 3 here],inactive
4,NC/C=C\Cn1cnc2c(=O)[nH]c(N)nc21,inactive
5,NCCCCn1cnc2c(N)nc(N)nc21,inactive

# Test system: Influenza B virus
# Test: Antiviral activity against Influenza B virus infected MDCK cells assessed as inhibition of virus-induced cytopathic effect
# Assay type: functional, organism-based
# Settings: not given
row,SMILES,Activity
1,NC/C=C\Cn1ccc(=O)[nH]c1=O,inactive
2,NCCCCn1cnc2c(-n3cccc3)ncnc21,inactive
3,NC/C=C\Cn1cnc2c(N)nc(N)nc21 [listing 2 of 3 here],inactive
4,NC/C=C\Cn1cnc2c(=O)[nH]c(N)nc21,inactive
5,NCCCCn1cnc2c(N)nc(N)nc21,inactive

# Test system: Human respirovirus 3
# Test: Antiviral activity against Human parainfluenza virus 3 infected Vero cells assessed as inhibition of virus-induced cytopathic effect
# Assay type: functional, organism-based
# Settings: not given
row,SMILES,Activity
1,NC/C=C\Cn1ccc(=O)[nH]c1=O,inactive
2,NCCCCn1cnc2c(-n3cccc3)ncnc21,inactive
3,NC/C=C\Cn1cnc2c(N)nc(N)nc21 [listing 2 of 3 here],inactive
4,NC/C=C\Cn1cnc2c(=O)[nH]c(N)nc21,inactive
5,NCCCCn1cnc2c(N)nc(N)nc21,inactive

# Test system: Human alphaherpesvirus 1
# Test: Antiviral activity against Human herpesvirus 1 strain KOS infected in HEL cells assessed as inhibition of virus-induced cytopathic effect
# Assay type: functional, organism-based
# Settings: not given
row,SMILES,Activity
1,NC/C=C\Cn1ccc(=O)[nH]c1=O,inactive
2,NCCCCn1cnc2c(-n3cccc3)ncnc21,inactive
3,NC/C=C\Cn1cnc2c(N)nc(N)nc21 [listing 2 of 3 here],inactive
4,NC/C=C\Cn1cnc2c(=O)[nH]c(N)nc21,inactive
5,NCCCCn1cnc2c(N)nc(N)nc21,inactive

# Test system: HepG2
# Test: Antiproliferative activity against Homo sapiens (human) HepG2 cells by MTT assay
# Assay type: functional, cell-based
# Settings: not given
row,SMILES,IC50 [µM]
1,NCCCCn1cnc2c(-n3cccc3)ncnc21,74.2
2,NC/C=C\Cn1cnc2c(N)nc(N)nc21 [listing 1 of 3 here],> 100

# Test system: MOLT-4
# Test: Cytostatic activity against Homo sapiens (human) Molt4/C8 cells after 72 hr by Coulter counting analysis
# Assay type: functional, cell-based
# Settings: MOLT-4, 72 h
row,SMILES,IC50 [µM]
1,NCCCCn1cnc2c(-n3cccc3)ncnc21,140
2,NC/C=C\Cn1cnc2c(N)nc(N)nc21 [listing 1 of 3 here],> 500

# Test system: WI-38
# Test: Antiproliferative activity against Homo sapiens (human) WI38 cells by MTT assay
# Assay type: cell-based
# Settings: not given
row,SMILES,IC50 [µM]
1,NCCCCn1cnc2c(-n3cccc3)ncnc21,> 100
2,NC/C=C\Cn1cnc2c(N)nc(N)nc21 [listing 1 of 3 here],> 100

# Test system: Coxsackievirus B4
# Test: Antiviral activity against Human coxsackievirus B4 infected HeLa cells assessed as inhibition of virus-induced cytopathic effect
# Assay type: functional, organism-based
# Settings: not given
row,SMILES,Activity
1,NC/C=C\Cn1ccc(=O)[nH]c1=O,inactive
2,NCCCCn1cnc2c(-n3cccc3)ncnc21,inactive
3,NC/C=C\Cn1cnc2c(N)nc(N)nc21 [listing 2 of 3 here],inactive
4,NC/C=C\Cn1cnc2c(=O)[nH]c(N)nc21,inactive
5,NCCCCn1cnc2c(N)nc(N)nc21,inactive

# Test system: MIA PaCa-2
# Test: Antiproliferative activity against Homo sapiens (human) MIAPaCa2 cells by MTT assay
# Assay type: functional, cell-based
# Settings: not given
row,SMILES,IC50 [µM]
1,NCCCCn1cnc2c(-n3cccc3)ncnc21,> 100
2,NC/C=C\Cn1cnc2c(N)nc(N)nc21 [listing 1 of 3 here],> 100

# Test system: Human immunodeficiency virus 2
# Test: Antiviral activity against Human immunodeficiency virus type 2 (ISOLATE ROD) infected CEM cells assessed as inhibition of virus-induced giant cell formation after 4 days by microscopic analysis
# Assay type: functional, organism-based
# Settings: Human immunodeficiency virus 2, ISOLATE ROD, CCRF-CEM, 96 h
row,SMILES,EC50 [µM]
1,NC/C=C\Cn1cnc2c(=O)[nH]c(N)nc21,10

# Test system: Reovirus sp.
# Test: Antiviral activity against Mammalian orthoreovirus 1 infected Vero cells assessed as inhibition of virus-induced cytopathic effect
# Assay type: functional, organism-based
# Settings: not given
row,SMILES,Activity
1,NC/C=C\Cn1ccc(=O)[nH]c1=O,inactive
2,NCCCCn1cnc2c(-n3cccc3)ncnc21,inactive
3,NC/C=C\Cn1cnc2c(N)nc(N)nc21 [listing 2 of 3 here],inactive
4,NC/C=C\Cn1cnc2c(=O)[nH]c(N)nc21,inactive
5,NCCCCn1cnc2c(N)nc(N)nc21,inactive

# Test system: CCRF-CEM
# Test: Cytostatic activity against Homo sapiens (human) CEM cells after 72 hr by Coulter counting analysis
# Assay type: functional, cell-based
# Settings: not given
row,SMILES,IC50 [µM]
1,NCCCCn1cnc2c(-n3cccc3)ncnc21,115
2,NC/C=C\Cn1cnc2c(N)nc(N)nc21 [listing 1 of 3 here],> 500

# Test system: Coxsackievirus B4
# Test: Antiviral activity against Human coxsackievirus B4 infected Vero cells assessed as inhibition of virus-induced cytopathic effect
# Assay type: functional, organism-based
# Settings: not given
row,SMILES,Activity
1,NC/C=C\Cn1ccc(=O)[nH]c1=O,inactive
2,NCCCCn1cnc2c(-n3cccc3)ncnc21,inactive
3,NC/C=C\Cn1cnc2c(N)nc(N)nc21 [listing 2 of 3 here],inactive
4,NC/C=C\Cn1cnc2c(=O)[nH]c(N)nc21,inactive
5,NCCCCn1cnc2c(N)nc(N)nc21,inactive

# Test system: SW-620
# Test: Antiproliferative activity against Homo sapiens (human) SW620 cells by MTT assay
# Assay type: functional, cell-based
# Settings: Homo sapiens, SW-620
row,SMILES,IC50 [µM]
1,NCCCCn1cnc2c(-n3cccc3)ncnc21,40.5
2,NC/C=C\Cn1cnc2c(N)nc(N)nc21 [listing 1 of 3 here],> 100

# Same assay, conditions: sw-620
row,SMILES,IC50 [µM]
1,NC/C=C\Cn1cnc2c(N)nc(N)nc21 [listing 3 of 3 here],98.8

# Test system: Influenza A virus H3N2
# Test: Antiviral activity against Influenza A virus H3N2 infected MDCK cells assessed as inhibition of virus-induced cytopathic effect
# Assay type: functional, organism-based
# Settings: not given
row,SMILES,Activity
1,NC/C=C\Cn1ccc(=O)[nH]c1=O,inactive
2,NCCCCn1cnc2c(-n3cccc3)ncnc21,inactive
3,NC/C=C\Cn1cnc2c(N)nc(N)nc21 [listing 2 of 3 here],inactive
4,NC/C=C\Cn1cnc2c(=O)[nH]c(N)nc21,inactive
5,NCCCCn1cnc2c(N)nc(N)nc21,inactive

# Test system: Human alphaherpesvirus 2
# Test: Antiviral activity against Human herpesvirus 2 strain G infected HEL cells assessed as inhibition of virus-induced cytopathic effect
# Assay type: functional, organism-based
# Settings: not given
row,SMILES,Activity
1,NC/C=C\Cn1ccc(=O)[nH]c1=O,inactive
2,NCCCCn1cnc2c(-n3cccc3)ncnc21,inactive
3,NC/C=C\Cn1cnc2c(N)nc(N)nc21 [listing 2 of 3 here],inactive
4,NC/C=C\Cn1cnc2c(=O)[nH]c(N)nc21,inactive
5,NCCCCn1cnc2c(N)nc(N)nc21,inactive

# Test system: Sindbis virus
# Test: Antiviral activity against Sindbis virus infected Vero cells assessed as inhibition of virus-induced cytopathic effect
# Assay type: functional, organism-based
# Settings: not given
row,SMILES,Activity
1,NC/C=C\Cn1ccc(=O)[nH]c1=O,inactive
2,NCCCCn1cnc2c(-n3cccc3)ncnc21,inactive
3,NC/C=C\Cn1cnc2c(N)nc(N)nc21 [listing 2 of 3 here],inactive
4,NC/C=C\Cn1cnc2c(=O)[nH]c(N)nc21,inactive
5,NCCCCn1cnc2c(N)nc(N)nc21,inactive
